From patent US20170087205A1, “Replacement Therapy for Natriuretic Peptide Deficiencies” (priority 2014, published 2017)
Positions of bridges follow the written chain, without caps; N, C: chain ends. Non-standard residues stand in square brackets, D forms with d. Residues, ends and D or L forms follow the SMILES beside them. *: point of attachment. X1 = N=C(N)NCCC[C@H]1C(=O)N[C@@H](C(N)=O)CN1*; dNle = CCCC[C@@H](N)C(=O)O; Heptanoyl = CCCCCCC(=O)*

What was measured:
[1] = biological target: T1, human NPRA (Homo sapiens, UniProt P16066); type: cell-based; details: human NPRA in HEK cells; mean ± SD
T1 sequence (P16066 33-1061): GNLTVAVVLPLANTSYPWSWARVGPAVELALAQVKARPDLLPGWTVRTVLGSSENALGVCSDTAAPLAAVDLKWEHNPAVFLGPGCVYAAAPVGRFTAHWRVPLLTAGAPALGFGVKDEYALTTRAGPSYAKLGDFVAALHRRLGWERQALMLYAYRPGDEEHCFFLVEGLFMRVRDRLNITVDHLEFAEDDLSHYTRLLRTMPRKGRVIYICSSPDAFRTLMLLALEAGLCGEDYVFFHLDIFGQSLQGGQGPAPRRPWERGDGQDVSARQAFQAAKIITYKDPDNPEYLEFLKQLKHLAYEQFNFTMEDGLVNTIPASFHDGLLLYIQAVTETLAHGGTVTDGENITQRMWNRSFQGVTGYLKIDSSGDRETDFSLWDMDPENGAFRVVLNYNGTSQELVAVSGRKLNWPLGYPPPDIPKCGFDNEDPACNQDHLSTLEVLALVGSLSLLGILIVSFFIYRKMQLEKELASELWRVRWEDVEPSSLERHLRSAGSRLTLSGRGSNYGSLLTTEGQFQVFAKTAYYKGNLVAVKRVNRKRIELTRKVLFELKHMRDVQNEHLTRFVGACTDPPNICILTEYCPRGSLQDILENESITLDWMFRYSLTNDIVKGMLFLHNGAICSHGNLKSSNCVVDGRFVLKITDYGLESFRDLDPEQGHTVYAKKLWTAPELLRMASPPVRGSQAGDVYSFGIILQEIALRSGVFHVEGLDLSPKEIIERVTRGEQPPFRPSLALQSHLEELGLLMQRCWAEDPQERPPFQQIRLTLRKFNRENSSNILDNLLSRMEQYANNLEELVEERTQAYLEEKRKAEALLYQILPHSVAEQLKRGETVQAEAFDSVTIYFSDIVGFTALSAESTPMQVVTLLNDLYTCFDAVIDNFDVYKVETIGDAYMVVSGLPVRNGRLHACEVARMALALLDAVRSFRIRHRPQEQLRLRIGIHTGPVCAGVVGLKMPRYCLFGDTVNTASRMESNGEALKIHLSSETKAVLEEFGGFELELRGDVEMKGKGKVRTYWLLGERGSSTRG
Description: A cDNA clone that encodes for human natriuratic peptide receptor A (NPRA) was purchased from Bio S&T Inc. (Montreal, Quebec). The cDNA clone was inserted into the mammalian expression vector pcDNA3.1 (Invitrogen) and transfected into HEK-293 cells. Stable clones were selected by culture of cells in the presence of G418 sulfate. […] HEK-hNPRA cells were maintained in culture at 37° C. in 5% CO2 in Dulbecco's Modified Eagle's Medium (DMEM) supplemented with 10% FBS, G418 sulfate (300 μg/mL) sodium glutamate (0.29 mg/mL), penicillin (100 units/mL) and streptromycin (100 ug/mL).
Functional evaluation of natriuretic peptide mimetics was performed by measuring the accumulation of intracellular cGMP in HEK-293 cells that express recombinant hNPR-A. HEK-NPRA cells were harvested by washing and centrifugation in Cell Dissociation Buffer (Gibco, Life Technologies). Pelleted cells were resuspended in Hank's Balanced Salt Solution (HBSS) containing 10 mM Hepes (pH 7.4), 5 mM MgCl2, 200 mM L-glutamine, 1 mM 1,10-phenanthroline and BSA (0.5 mg/mL). Following centrifugation, cells were resuspended in the above buffer supplemented with 0.5 mM 3-isobutyl-1-methylxanthine (IBMX). […] Accumulation of cGMP was measured using the cGMP Flashplate RIA (Perkin-Elmer). Data analysis and EC50 values were determined by using nonlinear regression analysis with GraphPad Prism® software.

[2] = Safety study in healthy volunteers: pharmacodynamic parameters (plasma cGMP); type: in vivo, human; details: mean ± SD
Text: Cyclic guanosine monophosphate (cGMP) in the plasma samples was extracted using a protein precipitation method. cGMP and internal standard, cyclic adenosine monophosphate (cAMP), were separated using a HPLC technique and detected by an Applied Biosystems API-4000 liquid chromatography-tandem mass spectrometer (LC-MS/MS) with turbo-ion spray ionization (electrospray) in positive ion mode. Positive ions were detected in multiple reaction monitoring (MRM) mode with Precursor→Product ion pairs of 346.3→152.1 for cGMP, and 330.0→136.3 for cAMP.
In a safety study, the mimetic of formula IV was administered to healthy volunteers. Doses of 0.1, 0.3, 0.7 and 1.0 μg/kg of the mimetic of formula IV were administered.
Kel is the apparent terminal elimination rate constant, calculated by linear regression of the terminal linear portion of the log concentration versus the time curve. The plasma cGMP concentrations returned to baseline levels by approximately 8 hours after dosing following 0.7 μg/kg and 1.0 μg/kg of the mimetic of formula IV.

[3] = biological target: human NEP (hNEP) (Homo sapiens, UniProt P08473); assay: Metabolism by human neutral endopeptidase (hNEP); type: in vitro ADME; details: two hours, 37° C., substrate concentration 50 μM
Chain of human NEP (hNEP) (P08473 whole entry): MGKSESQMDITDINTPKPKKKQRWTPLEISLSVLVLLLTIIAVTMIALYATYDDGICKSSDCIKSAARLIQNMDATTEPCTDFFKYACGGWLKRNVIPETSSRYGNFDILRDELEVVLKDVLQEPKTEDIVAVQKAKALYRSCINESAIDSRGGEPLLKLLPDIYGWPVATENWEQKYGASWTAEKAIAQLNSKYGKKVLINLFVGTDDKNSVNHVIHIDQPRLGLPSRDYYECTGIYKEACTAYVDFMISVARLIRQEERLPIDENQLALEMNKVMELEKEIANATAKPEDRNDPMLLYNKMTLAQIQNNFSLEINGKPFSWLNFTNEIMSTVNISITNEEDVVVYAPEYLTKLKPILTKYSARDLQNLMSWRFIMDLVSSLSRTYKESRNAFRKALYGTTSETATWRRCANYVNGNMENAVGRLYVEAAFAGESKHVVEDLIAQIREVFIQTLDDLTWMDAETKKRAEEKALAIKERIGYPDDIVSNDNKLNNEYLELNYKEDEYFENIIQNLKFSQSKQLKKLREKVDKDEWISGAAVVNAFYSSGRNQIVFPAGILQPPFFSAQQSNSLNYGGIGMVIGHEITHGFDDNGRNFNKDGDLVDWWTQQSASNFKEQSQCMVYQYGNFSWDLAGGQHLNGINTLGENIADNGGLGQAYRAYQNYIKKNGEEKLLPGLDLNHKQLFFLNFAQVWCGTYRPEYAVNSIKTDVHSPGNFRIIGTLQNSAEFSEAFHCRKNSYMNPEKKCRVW
Description: Pharmacol. 191:341-366 (2009)). A comparison was made between the sensitivity of the mimetic of formula IV and ANP to metabolism by human NEP (hNEP) (substrate concentration 50 μM). After two hours exposure to hNEP solution at 37° C., there was minimal degradation of the mimetic of formula IV (92% remaining; n=5). In contrast, under these conditions ANP was about 90% degraded after 60 minutes and 100% degraded after two hours (n=4). […] Results are shown in FIG. 1; results in FIG. 1 are expressed as the percent of the starting material, and are either the mean of 1-5 experiments or, where error bars are shown, are the mean±standard deviation.

[4] = in vivo; cited from earlier work

Structure (SMILES) | Function (cGMP) Emax (% of ANP response) [1] | t½ ([2]; 0.7 μg/kg) [h] | t½ ([2]; 1.0 μg/kg) [h] | percent remaining after exposure to hNEP [3] [%] | reported human plasma half-life [4]
CCCCCCC(=O)N[C@H]1CSSC[C@@H](C(=O)N[C@@H](Cc2ccc(O)cc2)C(=O)N2C[C@H](C(N)=O)NC(=O)[C@@H]2CCCNC(=N)N)NC(=O)[C@H](CO)NC(=O)[C@H]([C@@H](C)CC)NC(=O)[C@H](CCCNC(=N)N)NC(=O)[C@H](CC(=O)O)NC(=O)[C@@H](CCCC)NC(=O)[C@H](CCCNC(=N)N)NC(=O)CNC(=O)[C@@H](C)NC(=O)[C@H](Cc2ccccc2)NC(=O)[C@H](Cc2c[nH]cn2)NC1=O [mimetic of formula IV] (Heptanoyl-CHF[dA]GR[dNle]DRISCY-X1; disulfide 1-12) | 94 ± 8 % of ANP response | 3.03 ± 0.345 | 2.98 ± 3.61 | – | –
CC[C@H](C)[C@@H]1NC(=O)[C@H](CCCNC(=N)N)NC(=O)[C@H](CC(=O)O)NC(=O)[C@H](CC(C)C)NC(=O)[C@H](CCCCN)NC(=O)[C@H](CC(C)C)NC(=O)CNC(=O)[C@H](Cc2ccccc2)NC(=O)[C@@H](NC(=O)CNC(=O)[C@H](CCCCN)NC(=O)[C@H](CO)NC(=O)[C@H](CC(C)C)NC(=O)CN)CSSC[C@@H](C(=O)O)NC(=O)CNC(=O)[C@H](CC(C)C)NC(=O)CNC(=O)[C@H](CO)NC(=O)[C@H](CCSC)NC(=O)[C@H](CO)NC(=O)CNC1=O [hCNP] | – | – | – | 1 | about 2 minutes
